“And” between values parts separate entries of the source, which are not always exact repeats. Equal entries are not always repeated. Toxic doses and inconclusive results are not listed.
Tested on: L1210 leukemia ip in BDF1 mice, survival T/C
Assay: NCI In Vivo Anticancer Drug Screen. Data for tumor model L1210 Leukemia (intraperitoneal) in B6D2F1 (BDF1) mice
Conditions: endpoint: mean survival time, higher = longer survival
Method in brief: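 Transplantable tumor model; survival measured in treated vs vehicle control mice. Value = treated/control.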

[1] = dose: 100.0 mg/kg/injection, schedule: Q04DX003 (ip), vehicle: Klucel (hydroxypropylcellulose) (HPC)
[2] = dose: 200.0 mg/kg/injection, schedule: Q04DX003 (ip), vehicle: Klucel (hydroxypropylcellulose) (HPC)
[3] = dose: 400.0 mg/kg/injection, schedule: Q04DX003 (ip), vehicle: Klucel (hydroxypropylcellulose) (HPC)
[4] = dose: 50.0 mg/kg/injection, schedule: Q01DX009 (ip), vehicle: saline
[5] = dose: 100.0 mg/kg/injection, schedule: Q01DX009 (ip), vehicle: saline
[6] = dose: 100.0 mg/kg/injection, schedule: Q04DX003 (ip), vehicle: saline
[7] = dose: 200.0 mg/kg/injection, schedule: Q01DX009 (ip), vehicle: saline
[8] = dose: 200.0 mg/kg/injection, schedule: Q04DX003 (ip), vehicle: saline
[9] = dose: 400.0 mg/kg/injection, schedule: Q01DX009 (ip), vehicle: saline
[10] = dose: 400.0 mg/kg/injection, schedule: Q04DX003 (ip), vehicle: saline
[11] = dose: 100.0 mg/kg/injection, schedule: Q04DX003 (ip), vehicle: saline with Tween-80
[12] = dose: 100.0 mg/kg/injection, schedule: Q01DX001 (ip), vehicle: carboxymethylcellulose (CMC)
[13] = dose: 100.0 mg/kg/injection, schedule: Q01DX001 (ip), vehicle: saline
[14] = dose: 25.0 mg/kg/injection, schedule: Q04DX002 (ip), vehicle: Klucel (hydroxypropylcellulose) (HPC)
[15] = dose: 50.0 mg/kg/injection, schedule: Q04DX002 (ip), vehicle: Klucel (hydroxypropylcellulose) (HPC)
[16] = dose: 100.0 mg/kg/injection, schedule: Q04DX002 (ip), vehicle: Klucel (hydroxypropylcellulose) (HPC)

For `Cc1cc(NC(=O)c2ccc(C(=O)Nc3ccc(C4=NCCN4)c(C)c3)cc2)ccc1C1=NCCN1`, the T/C (dose: 48.0 mg/kg/injection, schedule: Q01DX Z (ip), vehicle: carboxymethylcellulose (CMC)) was 109 % of control, the T/C (dose: 72.0 mg/kg/injection, schedule: Q01DX Z (ip), vehicle: carboxymethylcellulose (CMC)) was 122 % of control and the T/C (dose: 100.0 mg/kg/injection, schedule: Q01DX Z (oral), vehicle: water) was 92 % of control. The T/C (dose: 110.0 mg/kg/injection, schedule: Q01DX Z (ip), vehicle: carboxymethylcellulose (CMC)) was 150 % of control and 277 % of control, the T/C (dose: 168.0 mg/kg/injection, schedule: Q01DX Z (ip), vehicle: carboxymethylcellulose (CMC)) was 164 % of control and the T/C (dose: 200.0 mg/kg/injection, schedule: Q01DX Z (oral), vehicle: water) was 107 % of control. The T/C (dose: 250.0 mg/kg/injection, schedule: Q01DX Z (ip), vehicle: carboxymethylcellulose (CMC)) was 108 % of control and 112 % of control, the T/C (dose: 375.0 mg/kg/injection, schedule: Q01DX Z (ip), vehicle: carboxymethylcellulose (CMC)) was 92 % of control and the T/C (dose: 400.0 mg/kg/injection, schedule: Q01DX Z (oral), vehicle: water) was 92 % of control. For the same compound, the T/C (dose: 800.0 mg/kg/injection, schedule: Q01DX Z (oral), vehicle: water) was 102 % of control.

For `O=C(Nc1cccc2ccccc12)Oc1ccccc1Cc1ccccc1`, the T/C [1] was 93 % of control, the T/C [2] was 93 % of control and the T/C [3] was 96 % of control.

For `CC(C)CC(=O)CC(O)(C(F)(F)F)C(F)(F)F`, the T/C [4] was 101 % of control, the T/C (dose: 50.0 mg/kg/injection, schedule: Q04DX003 (ip), vehicle: saline) was 94 % of control and the T/C [5] was 104 % of control. The T/C [6] was 92 % of control, the T/C [7] was 104 % of control and the T/C [8] was 100 % of control. For the same compound, the T/C [9] was 93 % of control and the T/C [10] was 103 % of control.

`CC1C(=O)OC(C)(C)C1(C)C` (stereo not drawn) was tested, and the T/C (dose: 25.0 mg/kg/injection, schedule: Q04DX003 (ip), vehicle: saline with Tween-80) was 108 % of control, the T/C (dose: 50.0 mg/kg/injection, schedule: Q04DX003 (ip), vehicle: saline with Tween-80) was 96 % of control and the T/C [11] was 96 % of control.

With `CCCOc1ccc(C2=NCC(C)S2)c(C)c1` (stereo not drawn) the T/C (dose: 12.5 mg/kg/injection, schedule: Q01DX009 (ip), vehicle: Klucel (hydroxypropylcellulose) (HPC)) was 94 % of control, the T/C (dose: 25.0 mg/kg/injection, schedule: Q01DX009 (ip), vehicle: Klucel (hydroxypropylcellulose) (HPC)) was 91 % of control and the T/C (dose: 50.0 mg/kg/injection, schedule: Q01DX009 (ip), vehicle: Klucel (hydroxypropylcellulose) (HPC)) was 98 % of control and 90 % of control. For the same compound, the T/C (dose: 100.0 mg/kg/injection, schedule: Q01DX005 (ip), vehicle: Klucel (hydroxypropylcellulose) (HPC)) was 101 % of control and the T/C (dose: 200.0 mg/kg/injection, schedule: Q01DX005 (ip), vehicle: Klucel (hydroxypropylcellulose) (HPC)) was 89 % of control.

With `CCCCCCCCCCCCCCCCN(C)C(=S)c1ccc(OC)cc1` the T/C [1] was 101 % of control, the T/C [2] was 101 % of control and the T/C [3] was 94 % of control.

In the case of `Cc1ccc(NC(=O)COc2ccc(C)cc2C)cc1`, the T/C (dose: 100.0 mg/kg/injection, schedule: Q04DX002 (ip), vehicle: gum acacia) is reported as 95 % of control and the T/C (dose: 200.0 mg/kg/injection, schedule: Q04DX002 (ip), vehicle: gum acacia) is reported as 89 % of control.

With `C/C(=C/c1ccccc1)OC(=O)c1ccccc1` the T/C (dose: 50.0 mg/kg/injection, schedule: Q01DX001 (ip), vehicle: carboxymethylcellulose (CMC)) was 87 % of control and the T/C [12] was 86 % of control.

`Nc1ccc([N+](=O)[O-])c(-c2ccccc2)c1[N+](=O)[O-]` was tested, and the T/C [12] was 91 % of control, the T/C (dose: 200.0 mg/kg/injection, schedule: Q01DX001 (ip), vehicle: carboxymethylcellulose (CMC)) was 91 % of control and the T/C (dose: 400.0 mg/kg/injection, schedule: Q01DX001 (ip), vehicle: carboxymethylcellulose (CMC)) was 91 % of control.

`O=C(Nc1ccc(C(=O)O)c(O)c1)Oc1ccccc1` was tested, and the T/C [1] was 90 % of control, the T/C [2] was 98 % of control and the T/C [3] was 107 % of control.

`N#CC(C(=O)O)C1(C(C#N)C(=O)O)CCN(Cc2ccccc2)CC1` (stereo not drawn) was tested, and the T/C (dose: 75.0 mg/kg/injection, schedule: Q01DX001 (ip), vehicle: carboxymethylcellulose (CMC)) was 96 % of control, the T/C (dose: 150.0 mg/kg/injection, schedule: Q01DX001 (ip), vehicle: carboxymethylcellulose (CMC)) was 100 % of control and the T/C (dose: 300.0 mg/kg/injection, schedule: Q01DX001 (ip), vehicle: carboxymethylcellulose (CMC)) was 102 % of control.

`O=C(Nc1ccc(S(=O)(=O)O)cc1)c1ccc([N+](=O)[O-])cc1` was tested, and the T/C (dose: 50.0 mg/kg/injection, schedule: Q01DX001 (ip), vehicle: saline) was 92 % of control, the T/C [13] was 103 % of control and the T/C [5] was 95 % of control. The T/C [6] was 100 % of control, the T/C (dose: 200.0 mg/kg/injection, schedule: Q01DX001 (ip), vehicle: saline) was 97 % of control and the T/C [7] was 102 % of control. The T/C [8] was 91 % of control, the T/C (dose: 400.0 mg/kg/injection, schedule: Q01DX001 (ip), vehicle: saline) was 97 % of control and the T/C [9] was 100 % of control. The T/C [10] was 100 % of control.

With `C1=Nc2cc3c(cc2Cn2cccc21)OCO3` the T/C [14] was 86 % of control, the T/C [15] was 94 % of control and the T/C [16] was 94 % of control.

With `CC([NH-])C(C)[NH-].[Cl][Pd][Cl]` (stereo not drawn) the T/C (dose: 12.5 mg/kg/injection, schedule: Q04DX002 (ip), vehicle: Klucel (hydroxypropylcellulose) (HPC)) was 97 % of control, the T/C [14] was 97 % of control and the T/C [15] was 93 % of control. For the same compound, the T/C (dose: 50.0 mg/kg/injection, schedule: Q04DX002 (ip), vehicle: saline with Tween-80) was 93 % of control, the T/C (dose: 100.0 mg/kg/injection, schedule: Q04DX002 (ip), vehicle: saline with Tween-80) was 90 % of control and the T/C (dose: 200.0 mg/kg/injection, schedule: Q04DX002 (ip), vehicle: saline with Tween-80) was 97 % of control.

For `CCOc1ccn(CC(=O)N2CCOCC2)c(=O)n1`, the T/C (dose: 100.0 mg/kg/injection, schedule: Q01DX009 (ip), vehicle: water) was 93 % of control, the T/C (dose: 100.0 mg/kg/injection, schedule: Q04DX003 (ip), vehicle: water) was 105 % of control and the T/C (dose: 200.0 mg/kg/injection, schedule: Q01DX009 (ip), vehicle: water) was 95 % of control. For the same compound, the T/C (dose: 200.0 mg/kg/injection, schedule: Q04DX003 (ip), vehicle: water) was 100 % of control, the T/C (dose: 400.0 mg/kg/injection, schedule: Q01DX009 (ip), vehicle: water) was 98 % of control and the T/C (dose: 400.0 mg/kg/injection, schedule: Q04DX003 (ip), vehicle: water) was 95 % of control.

With `C/C=C/CCCCCCCC(=O)OCCCC` the T/C (dose: 100.0 mg/kg/injection, schedule: Q01DX009 (ip), vehicle: saline with Tween-80) was 101 % of control, the T/C [11] was 103 % of control and the T/C (dose: 200.0 mg/kg/injection, schedule: Q01DX009 (ip), vehicle: saline with Tween-80) was 107 % of control. For the same compound, the T/C (dose: 200.0 mg/kg/injection, schedule: Q04DX003 (ip), vehicle: saline with Tween-80) was 97 % of control, the T/C (dose: 400.0 mg/kg/injection, schedule: Q01DX009 (ip), vehicle: saline with Tween-80) was 95 % of control and the T/C (dose: 400.0 mg/kg/injection, schedule: Q04DX003 (ip), vehicle: saline with Tween-80) was 98 % of control.

With `CCCCCCCCCCCCCCCCCCCCCCCCCCCCCC` the T/C [1] was 93 % of control, the T/C [2] was 89 % of control and the T/C [3] was 89 % of control.

In the case of `COC(=O)/C(=C\c1ccccc1)CN1CCCCC1`, the T/C (dose: 25.0 mg/kg/injection, schedule: Q01DX001 (ip), vehicle: saline with Tween-80) is reported as 101 % of control, the T/C (dose: 50.0 mg/kg/injection, schedule: Q01DX001 (ip), vehicle: saline with Tween-80) is reported as 93 % of control and the T/C (dose: 100.0 mg/kg/injection, schedule: Q01DX001 (ip), vehicle: saline with Tween-80) is reported as 104 % of control.

With `Cc1cnc2c(N)[nH]nc2n1` the T/C [1] was 106 % of control, the T/C (dose: 200.0 mg/kg/injection, schedule: Q01DX009 (ip), vehicle: Klucel (hydroxypropylcellulose) (HPC)) was 104 % of control and the T/C [2] was 96 % of control. The T/C (dose: 400.0 mg/kg/injection, schedule: Q01DX009 (ip), vehicle: Klucel (hydroxypropylcellulose) (HPC)) was 100 % of control and the T/C [3] was 102 % of control.

With `CCn1c[n+](-c2ccccc2)cn1` the T/C [13] was 106 % of control.

`CS(=O)(=O)Oc1ccc(S(=O)(=O)F)cc1Cl` was tested, and the T/C [16] was 102 % of control and the T/C (dose: 200.0 mg/kg/injection, schedule: Q04DX002 (ip), vehicle: Klucel (hydroxypropylcellulose) (HPC)) was 94 % of control.

With `COCC(O)CN1CCN(c2ccccc2C)CC1` (stereo not drawn) the T/C (dose: 25.0 mg/kg/injection, schedule: Q01DX009 (ip), vehicle: saline) was 108 % of control, the T/C [4] was 93 % of control and the T/C [5] was 100 % of control.

From PubChem BioAssay AID248 (DTP/NCI, 2004)
